Experimental findings from patent US12187717B2, “Compound and use thereof in treating autoimmune diseases” (PARENCHYMA BIOTECH INC., priority 2022, dated 2025) are described below.

In one series the target is T1, CYP1A2 (Homo sapiens, UniProt P05177).
T1 sequence (P05177 1-516): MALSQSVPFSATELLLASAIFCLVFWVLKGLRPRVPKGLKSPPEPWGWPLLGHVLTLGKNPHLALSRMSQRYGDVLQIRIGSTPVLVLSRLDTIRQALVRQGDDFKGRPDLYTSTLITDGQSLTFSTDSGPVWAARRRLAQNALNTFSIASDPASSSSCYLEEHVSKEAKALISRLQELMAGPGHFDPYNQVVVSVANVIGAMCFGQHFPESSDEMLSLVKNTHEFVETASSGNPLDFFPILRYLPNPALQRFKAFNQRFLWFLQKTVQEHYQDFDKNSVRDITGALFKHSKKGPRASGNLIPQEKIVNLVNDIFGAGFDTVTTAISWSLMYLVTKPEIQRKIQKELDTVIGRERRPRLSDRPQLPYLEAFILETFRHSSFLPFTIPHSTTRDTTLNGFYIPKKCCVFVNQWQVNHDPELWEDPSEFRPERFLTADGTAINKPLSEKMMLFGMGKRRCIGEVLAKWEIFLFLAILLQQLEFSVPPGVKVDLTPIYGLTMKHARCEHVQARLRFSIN
The experiment in a line: CYP isoenzyme activity. The conditions noted are these: 10 μM. The format is in vitro ADME.

Series [1] concerns colitis-associated colorectal cancer (CA-CRC). The experiment in a line: AOM/DSS colorectal cancer model, therapeutic administration. It counts as in vivo, C57BL/6 mice. Conditions: 10 mg/kg oral, 50th to 63rd days (treatment). The protocol:
AOM (Sigma Aldrich, Cat No. A5486) was diluted with physiological saline so as to be a concentration of 10 mg/kg, and then administered intraperitoneally to C57BL/6 mice (8 weeks old, female, 18±2 g) by […] for a total of 3 times at an interval of 7 days (Experiment day 0, 7, 14th). On the 7th day of the experiment, a 1.5% DSS solution prepared by dissolving 1.5% DSS in sterile distilled water was given for drinking to the mice for 7 days. Further, the 1.5% DSS solution was changed at an interval of 2 days. Sterile distilled water was provided for drinking from the 8th day of the experiment. In the compound 6 administration group according to an embodiment of the present invention, 10 mg/kg of Compound 6 per mouse was completely dissolved in an ethanol-Cremophor EL mixture corresponding to 7.5% (v/v) of the administered dose, and then, was diluted in phosphate buffered saline to prepare the final ethanol:Cremophor EL:phosphate buffered saline (0.375:0.375:9.25, v/v/v), followed by oral administration with 200 μl of the prepared solution. In order to confirm the preventive effect, Compound 6 was administered for a total of 14 times from the 7th to the 20th days of the experiment. The effects of Compound 6 according to an embodiment of the present invention on treating colon cancer was confirmed. From the 50th to the 63rd days of the experiment, DSS was administered on the 7th and 14th days after AOM administration to the mice to induce colon cancer, and Compound 6 was administered 14 times from the 50th to the 63rd days. […] That is, it was confirmed that Compound 6 was effective in treating colon cancer (FIGS. 13 and 14). Therefore, it was confirmed that Compound 6 can be used as an effective preventive and therapeutic agent for colon cancer.

The next series deals with Th17 cells. The experiment in a line: IL-17A production of Th17 cells (flex set, flow cytometry). The format is cell-based, C57BL/6 mice. The conditions noted are these: 1.0 μM, 2.5 μM and 5 μM, 3 days, compared to Comparative Example 1. The protocol: The spleen of C57BL/6 mice (8 to 12 weeks old, female) was excised, pulverized by adding IMDM medium, and then passed through a 40 μm cell strainer (BD Falcon), thereby obtaining a single cell suspension. The single cell suspension was centrifuged (1200 rpm, 5 minutes), and after discarding the supematant, 1 ml of ACK lysis buffer was added, followed by stirring for 1 minute and then washing the same with RPMI medium. After the single cell suspension was centrifuged, T-cells were separated using a Mouse CD4 Naive T cell Enrichment Kit (Invitrogen). The separated T-cells were prepared by resuspending them in RPMI-fetal bovine serum (FBS) 10%+2-ME (mercaptoethanol) medium at 1×10^6/ml. For T-cell activation, 5 μg/ml anti-CD3 (eBioscience™) was dispensed by 100 μl onto a 96-well plate, reacted in a cell incubator (37° C., 5% CO2 incubator) for 4 hours, and washed with phosphate buffered saline to prepare the plate. The T-cells were dispensed by 200 μl onto the prepared plate, and each well was treated with 2 μg/ml of anti-CD28 (eBioscience™), 3 ng/ml of TGFβ-1 (R&D systems), 10 ng/ml of IL-2 (R&D systems), 5 μg/ml of anti-mouse IFN-γ (Bio X cell), and 5 μg/ml of anti-mouse IL-4 (Bio X cell). […]
In general terms: In flow cytometry, cells or beads pass a laser one at a time.

On to `O=C(Cc1c[nH]c2ccc(Cl)cc12)Nc1nc2ccc(N3CCOCC3)cc2s1` [Compound 6, 2-(5-chloro-1H-indol-3-yl)-N-(6-morpholinobenzo[d]thiazol-2-yl)acetamide], for which, on CYP1A2, the CYP1A2 activity is on record as 88.2 % of Control Activity. Moreover, the body weight result in series [1] (after 70 days) is recorded as “increase in the body weight similar to that of normal mice”. For the same molecule, in series [1] (vs control), the number of tumors result is reported as “significantly smaller” and the size of tumors entry was “significantly smaller”. Besides, the “IL-17A production of Th17 cells” value in the series on Th17 cells is reported as “significantly decreased”.
